Earlier results, collected in paper PMC12736226, “Acid Versus Amide—Facts and Fallacies: A Case Study in Glycomimetic Ligand Design” (Molecules, 2025).

Target: T1, E-selectin (Homo sapiens, UniProt P16581)
T1 construct: gene SELE; soluble extracellular lectin-domain fragment with Ca2+
T1 sequence (P16581 22-301): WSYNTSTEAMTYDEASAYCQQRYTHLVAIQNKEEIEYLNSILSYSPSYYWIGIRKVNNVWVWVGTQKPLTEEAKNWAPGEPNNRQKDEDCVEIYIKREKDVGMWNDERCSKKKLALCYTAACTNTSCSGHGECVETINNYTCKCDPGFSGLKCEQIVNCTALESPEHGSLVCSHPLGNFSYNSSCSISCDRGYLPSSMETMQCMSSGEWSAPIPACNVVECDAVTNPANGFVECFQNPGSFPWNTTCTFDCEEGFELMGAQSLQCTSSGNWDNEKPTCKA
Assay: microscale thermophoresis (MST)
Assay type: binding
Details: affinity data also reported in Ref. 25; read-out: Affinity KD MST [μM] (95% CI)
From the text: microscale thermophoresis (MST) on E-selectin

C[C@@H]1O[C@@H](O[C@@H]2CCCC[C@H]2O[C@@H]2O[C@H](CO)[C@H](O)[C@H](O[C@@H](CC3CCCCC3)C(N)=O)[C@H]2O)[C@@H](O)[C@H](O)[C@@H]1O [3a]
Kd: 166 µM

CNC(=O)[C@H](CC1CCCCC1)O[C@H]1[C@@H](O)[C@@H](CO)O[C@@H](O[C@@H]2CCCC[C@H]2O[C@@H]2O[C@@H](C)[C@@H](O)[C@@H](O)[C@@H]2O)[C@@H]1O [3b]
Kd: 112 µM

CCNC(=O)[C@H](CC1CCCCC1)O[C@H]1[C@@H](O)[C@@H](CO)O[C@@H](O[C@@H]2CCCC[C@H]2O[C@@H]2O[C@@H](C)[C@@H](O)[C@@H](O)[C@@H]2O)[C@@H]1O [3c]
Kd: 109 µM

C[C@@H]1O[C@@H](O[C@@H]2CCCC[C@H]2O[C@@H]2O[C@H](CO)[C@H](O)[C@H](O[C@@H](CC3CCCCC3)C(=O)N(C)C)[C@H]2O)[C@@H](O)[C@H](O)[C@@H]1O [3d]
Kd: 34.6 µM

C[C@@H]1O[C@@H](O[C@@H]2CCCC[C@H]2O[C@@H]2O[C@H](CO)[C@H](O)[C@H](O[C@@H](CC3CCCCC3)C(=O)N3CCCC3)[C@H]2O)[C@@H](O)[C@H](O)[C@@H]1O [3e]
Kd: 21.4 µM

C[C@@H]1O[C@@H](O[C@@H]2CCCC[C@H]2O[C@@H]2O[C@H](CO)[C@H](O)[C@H](O[C@@H](CC3CCCCC3)C(=O)N3CCC3)[C@H]2O)[C@@H](O)[C@H](O)[C@@H]1O [3f]
Kd: 17 µM

C[C@@H]1O[C@@H](O[C@@H]2CCCC[C@H]2O[C@@H]2O[C@H](CO)[C@H](O)[C@H](O[C@@H](CC3CCCCC3)C(=O)N3CC(c4ccccc4)C3)[C@H]2O)[C@@H](O)[C@H](O)[C@@H]1O [3h]
Kd: 16.2 µM

C[C@@H]1O[C@@H](O[C@@H]2CCCC[C@H]2O[C@@H]2O[C@H](CO)[C@H](O)[C@H](O[C@@H](CC3CCCCC3)C(=O)N3CC(C)(C)C3)[C@H]2O)[C@@H](O)[C@H](O)[C@@H]1O [3i]
Kd: 38.2 µM

CC(=O)N[C@H]1[C@H]([C@H](O)[C@H](O)CO)O[C@@](O[C@H]2[C@@H](O)[C@@H](CO)O[C@@H](O[C@H]3[C@H](O[C@@H]4O[C@@H](C)[C@@H](O)[C@@H](O)[C@@H]4O)[C@@H](NC(C)=O)C(O)O[C@@H]3CO)[C@@H]2O)(C(=O)O)C[C@@H]1O (stereo partly drawn) [compound 1, Sialyl Lewis^x]
Kd: 873 µM
